Measured values as given in the Kinase Knowledgebase extract (Sharma et al. 2016).
Values after ≈ are worked out from the molar mass of the structure shown.

Each compound was assayed against EGFR (UniProt P00533).
Sequence of EGFR (P00533 whole entry, looked up): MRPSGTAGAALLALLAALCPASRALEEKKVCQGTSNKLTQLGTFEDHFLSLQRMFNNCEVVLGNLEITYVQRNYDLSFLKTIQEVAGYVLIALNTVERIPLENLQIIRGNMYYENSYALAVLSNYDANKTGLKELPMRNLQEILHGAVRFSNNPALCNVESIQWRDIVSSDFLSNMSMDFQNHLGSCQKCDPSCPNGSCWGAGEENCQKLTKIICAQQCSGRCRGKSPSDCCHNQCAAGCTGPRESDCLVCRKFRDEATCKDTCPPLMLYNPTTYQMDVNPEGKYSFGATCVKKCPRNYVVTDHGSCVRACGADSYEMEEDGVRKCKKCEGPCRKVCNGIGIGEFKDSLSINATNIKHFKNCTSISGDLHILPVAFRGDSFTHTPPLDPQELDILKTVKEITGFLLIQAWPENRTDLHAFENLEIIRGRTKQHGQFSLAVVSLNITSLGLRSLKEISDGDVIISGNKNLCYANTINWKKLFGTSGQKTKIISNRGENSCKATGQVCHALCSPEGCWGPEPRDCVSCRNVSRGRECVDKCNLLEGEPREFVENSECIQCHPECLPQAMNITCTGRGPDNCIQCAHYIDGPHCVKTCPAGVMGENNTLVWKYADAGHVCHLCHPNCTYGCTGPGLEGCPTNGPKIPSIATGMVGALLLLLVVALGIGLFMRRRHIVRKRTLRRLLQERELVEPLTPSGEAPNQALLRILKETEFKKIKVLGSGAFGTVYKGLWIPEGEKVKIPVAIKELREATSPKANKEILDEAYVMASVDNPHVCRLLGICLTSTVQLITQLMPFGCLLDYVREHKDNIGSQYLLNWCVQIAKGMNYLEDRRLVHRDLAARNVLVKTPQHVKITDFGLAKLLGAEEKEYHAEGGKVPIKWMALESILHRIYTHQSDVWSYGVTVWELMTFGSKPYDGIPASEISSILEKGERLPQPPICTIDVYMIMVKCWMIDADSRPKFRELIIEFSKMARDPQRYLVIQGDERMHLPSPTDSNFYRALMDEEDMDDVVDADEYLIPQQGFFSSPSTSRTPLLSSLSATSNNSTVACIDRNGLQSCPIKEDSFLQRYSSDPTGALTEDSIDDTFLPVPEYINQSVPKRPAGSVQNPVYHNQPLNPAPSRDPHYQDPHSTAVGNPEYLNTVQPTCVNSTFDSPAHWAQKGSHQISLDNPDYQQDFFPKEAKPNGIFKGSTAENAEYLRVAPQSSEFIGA

First: CC(C)(C)OC(=O)NCCCNc1ncnc(-c2ccccc2)n1
Second: CC(C)(C)OC(=O)NCc1cccc(Nc2ncnc(Nc3cc(-c4ccccc4)n[nH]3)n2)c1
The IC50 of the first is higher: greater than 4.5 µg/mL for the first, 2.4 to 3.5 µg/mL (≈ 5.23 to 7.63 µM) for the second.

First: COc1cc(Nc2ncnc(-n3c(NCc4ccccc4)nc4ccccc43)n2)cc(OC)c1OC
Second: COc1cc(Nc2ncnc(-n3c(NC(C)(C)c4ccccc4)nc4ccccc43)n2)cc(OC)c1OC
The IC50 of the first is lower: 2.4 to 3.5 µg/mL (≈ 4.96 to 7.24 µM) for the first, greater than 4.5 µg/mL for the second.

`COc1cc(Nc2ncnc(-n3c(NCc4ccccn4)nc4ccccc43)n2)cc(OC)c1OCCN1CCOCC1` and `COc1cc(Nc2ncnc(-n3c(NCc4ccc5c(c4)OCO5)nc4ccccc43)n2)cc(OC)c1OC` cannot be ordered by IC50: greater than 4.5 µg/mL for the first, greater than 4.5 µg/mL for the second.

`Oc1cccc(Nc2ncnc(-c3ccccc3)n2)c1` and `Oc1ccc(Nc2ncnc(-c3ccccc3)n2)cc1` cannot be ordered by IC50: greater than 4.5 µg/mL for the first, greater than 4.5 µg/mL for the second.

`COc1cc(Nc2ncnc(-c3cccnc3Nc3cccc(C(F)(F)F)c3)n2)cc(OC)c1OC` and `COc1cc(Nc2ncnc(-c3cccnc3Nc3cccc(C(C)=O)c3)n2)cc(OC)c1OC` cannot be ordered by IC50: greater than 4.5 µg/mL for the first, greater than 4.5 µg/mL for the second.

`COc1ccc(Nc2ncnc(-n3cccc3)n2)c(OC)c1` and `Cc1cccc(Nc2ncnc(-n3cccc3)n2)c1C` cannot be ordered by IC50: greater than 4.5 µg/mL for the first, greater than 4.5 µg/mL for the second.

First: COc1ccc(Nc2ncnc(N(C)[C@H](C)c3ccccc3)n2)cc1OC
Second: COc1ccc(Nc2ncnc(N(C)c3cccc(Cl)c3)n2)cc1OC
The IC50 of the first is higher: 0.4 to 2.4 µg/mL (≈ 1.09 to 6.57 µM) for the first, less than 0.4 µg/mL for the second.

`CCOC(=O)C(Nc1nc2ccccc2n1-c1ncnc(Nc2cc(OC)c(OC)c(OC)c2)n1)c1ccccc1` (stereo not drawn) and `COc1cc(Nc2ncnc(-n3c(NC(CCO)c4ccccc4)nc4ccccc43)n2)cc(OC)c1OC` (stereo not drawn) cannot be ordered by IC50: greater than 4.5 µg/mL for the first, greater than 4.5 µg/mL for the second.

Compared with `COc1cc(Nc2ncnc(-n3ccc4ccccc43)n2)cc(OC)c1OC`, `COc1cc(Nc2ncnc(-n3c(=O)[nH]c4ccccc43)n2)cc(OC)c1OC` is lower in IC50: greater than 4.5 µg/mL for the first, 3.5 to 4.5 µg/mL (≈ 8.87 to 11.4 µM) for the second.

`COc1cc(Nc2ncnc(-n3c(NCc4ccc([N+](=O)[O-])cc4)nc4ccccc43)n2)cc(OC)c1OC` and `COC(=O)c1cccc(Nc2nc3ccccc3n2-c2ncnc(Nc3cc(OC)c(OC)c(OC)c3)n2)c1` cannot be ordered by IC50: greater than 4.5 µg/mL for the first, greater than 4.5 µg/mL for the second.

First: CN(c1cccc(Cl)c1)c1ncnc(Nc2cc(-c3ccco3)[nH]n2)n1
Second: c1coc(-c2cc(Nc3ncnc(Nc4ccc(-c5csnn5)cc4)n3)n[nH]2)c1
The IC50 of the first is lower: less than 0.4 µg/mL for the first, 0.4 to 2.4 µg/mL (≈ 0.991 to 5.95 µM) for the second.

Compared with `O=C(O)c1cccc(Nc2ncnc(-n3c(NCc4ccccc4)nc4ccccc43)n2)c1`, `c1ccc(CNc2ncccc2-c2ncnc(Nc3cccc(Cn4ccnn4)c3)n2)cc1` is higher in IC50: less than 0.4 µg/mL for the first, 0.4 to 2.4 µg/mL (≈ 0.918 to 5.51 µM) for the second.

`Nc1ncnc(Nc2ccc(F)cc2F)n1` and `Nc1ncnc(Nc2nc(-c3ccccc3)cs2)n1` cannot be ordered by IC50: greater than 4.5 µg/mL for the first, greater than 4.5 µg/mL for the second.

Compared with `O=c1[nH]c2ccccc2n1-c1ncnc(Nc2ccc3ncccc3c2)n1`, `O=c1[nH]c2ccccc2n1-c1ncnc(Nc2cccc3ncccc23)n1` is higher in IC50: 3.5 to 4.5 µg/mL (≈ 9.85 to 12.7 µM) for the first, greater than 4.5 µg/mL for the second.

Going from `COc1cc(Nc2ncnc(N(C)c3cccc(Cl)c3)n2)cc(OC)c1OC` to `COc1cc(Nc2ncnc(-c3ccc(C)cc3)n2)cc(OC)c1OC`, the IC50 rises from less than 0.4 µg/mL to greater than 4.5 µg/mL.

First: COc1ccc(Nc2ncnc(NCc3cccc(Cl)c3)n2)cc1OC
Second: COc1ccc(Nc2ncnc(Nc3cccc(C)c3)n2)cc1OC
The IC50 of the first is higher: 0.4 to 2.4 µg/mL (≈ 1.08 to 6.45 µM) for the first, less than 0.4 µg/mL for the second.

`COc1ccc(CNc2nc3cc(OC)ccc3n2-c2ncnc(Nc3cc(OC)c(OC)c(OC)c3)n2)cc1.COc1ccc(CNc2nc3ccc(OC)cc3n2-c2ncnc(Nc3cc(OC)c(OC)c(OC)c3)n2)cc1` and `COc1cc(Nc2ncnc(-n3c(Nc4ccc5cn[nH]c5c4)nc4ccccc43)n2)cc(OC)c1OC` cannot be ordered by IC50: greater than 4.5 µg/mL for the first, greater than 4.5 µg/mL for the second.

`c1csc(-c2ncnc(Nc3ccc(N4CCOCC4)cc3)n2)c1` and `Clc1cccc(Nc2ncnc(-c3cccs3)n2)c1` cannot be ordered by IC50: greater than 4.5 µg/mL for the first, greater than 4.5 µg/mL for the second.

`COC(=O)c1ccc(-c2cc(Nc3ncnc(NCc4ccccc4F)n3)[nH]n2)cc1` and `COC(=O)c1ccc(-c2cc(Nc3ncnc(Nc4cccc(C(N)=O)c4)n3)[nH]n2)cc1` cannot be ordered by IC50: greater than 4.5 µg/mL for the first, greater than 4.5 µg/mL for the second.

Compared with `COc1cc(Nc2ncnc(Nc3ccccc3)n2)cc(OC)c1OC`, `COc1cc(Nc2ncnc(Nc3nc4ccccc4n3C)n2)cc(OC)c1OC` is higher in IC50: 0.4 to 2.4 µg/mL (≈ 1.13 to 6.79 µM) for the first, greater than 4.5 µg/mL for the second.

`COc1cc(Nc2ncnc(Nc3cccc(Cl)c3)n2)cc(OC)c1` and `C=CCN(c1cccc(Cl)c1)c1ncnc(Nc2cc(OC)cc(OC)c2)n1` cannot be ordered by IC50: less than 0.4 µg/mL for the first, less than 0.4 µg/mL for the second.

`COc1cc(Nc2ncnc(-c3cccc4ccccc34)n2)cc(OC)c1OC` and `COc1cc(Nc2ncnc(-c3cccnc3Nc3cccc(C(N)=O)c3)n2)cc(OC)c1OC` cannot be ordered by IC50: greater than 4.5 µg/mL for the first, greater than 4.5 µg/mL for the second.

`COc1cc(Nc2ncnc(Oc3ccc(OCc4ccccc4)cc3)n2)cc(OC)c1OC` and `COc1cc(Nc2ncnc(-c3cccnc3Nc3ccc(Oc4ccccc4)cc3)n2)cc(OC)c1OC` cannot be ordered by IC50: greater than 4.5 µg/mL for the first, greater than 4.5 µg/mL for the second.

`COC(=O)c1ccc(-c2cc(Nc3ncnc(Nc4cc(Cl)cc(Cl)c4)n3)[nH]n2)cc1` and `CCOC(=O)c1cccc(Nc2ncnc(Nc3cc(-c4ccc(C(=O)OC)cc4)n[nH]3)n2)c1` cannot be ordered by IC50: greater than 4.5 µg/mL for the first, greater than 4.5 µg/mL for the second.

`COc1cc(Nc2ncnc(Nc3[nH]ncc3-c3cccs3)n2)cc(OC)c1OC` and `COc1cc(Nc2ncnc(Nc3c(C)n(C)n(-c4ccccc4)c3=O)n2)cc(OC)c1OC` cannot be ordered by IC50: greater than 4.5 µg/mL for the first, greater than 4.5 µg/mL for the second.

First: COc1cc(C)c(Nc2ncnc(Nc3cc(-c4ccccc4)n[nH]3)n2)cc1OC
Second: NC(=O)c1ccc(Nc2ncnc(Nc3cc(-c4ccco4)n[nH]3)n2)cc1
The IC50 of the first is lower: 0.4 to 2.4 µg/mL (≈ 0.991 to 5.95 µM) for the first, 2.4 to 3.5 µg/mL (≈ 6.62 to 9.66 µM) for the second.

`COc1cc(Nc2ncnc(-c3cccnc3NCCCN)n2)cc(OC)c1OC` was tested, and the IC50 was greater than 4.5 µg/mL.
